# Target: motor domain of human KSP (Eg 5, KNSL1) (Homo sapiens (Human), UniProt P52732)
# Experiment: Assay for determining KSP activity (microtubule-stimulated ATPase, Biomol Green phosphate detection)
# Format: biochemical
# Conditions: KSP motor domain 3 nM, bovine brain microtubules 50 μg/mL, 2 hours at RT, absorbance at 650 nm; read-out: Biological Activity (IC50)
# Procedure: This example provides a representative in vitro assay for determining KSP activity in vitro. Purified microtubules obtained from bovine brain were purchased from Cytoskeleton Inc. (Denver, Colo., USA). The motor domain of human KSP (Eg 5, KNSL1) was cloned, expressed, and purified to greater than 95% homogeneity. Biomol Green was purchased from BIOMOL International L.P. (Plymouth Meeting, Pa., USA). The microtubules were rapidly thawed at 37° C. for 10 minutes before making dilution. Microtubules and KSP motor protein (i.e., the KSP motor domain) were diluted in assay buffer (20 mM Tris-HCl (pH 7.5), 1 mM MgCl2, 10 mM DTT and 0.125% BSA) to a final concentration of 50 μg/mL microtubules and 3 nM KSP.
# To each well of the testing plate (96-well half area plate) containing 1.25 μL of inhibitor or test compound in DMSO (or DMSO only in the case of controls) were added 25 μL of ATP solution (ATP diluted to a concentration of 250 μM in assay buffer) and 25 μL of the above-described microtubule/KSP solution. The plates were incubated at RT for 2 hours. Following incubation, 65 μL of Biomol Green (a malachite green-based dye that detects the release of inorganic phosphate) with 0.015% Tween 20 was added to each well. The plates were incubated for an additional 15-20 minutes then the absorbance at 650 nm was determined using a Molecular Devices Spectrophotometer. The amount of absorbance at 650 nm corresponded to the amount of KSP activity in the samples. The IC50 of each inhibitor or test compound was then determined based on the decrease in absorbance at 650 nm at each concentration, via nonlinear regression using either XLFit for Excel or Prism data analysis software by GraphPad Software Inc.
# motor domain of human KSP (Eg 5, KNSL1), sequence (P52732 18-359): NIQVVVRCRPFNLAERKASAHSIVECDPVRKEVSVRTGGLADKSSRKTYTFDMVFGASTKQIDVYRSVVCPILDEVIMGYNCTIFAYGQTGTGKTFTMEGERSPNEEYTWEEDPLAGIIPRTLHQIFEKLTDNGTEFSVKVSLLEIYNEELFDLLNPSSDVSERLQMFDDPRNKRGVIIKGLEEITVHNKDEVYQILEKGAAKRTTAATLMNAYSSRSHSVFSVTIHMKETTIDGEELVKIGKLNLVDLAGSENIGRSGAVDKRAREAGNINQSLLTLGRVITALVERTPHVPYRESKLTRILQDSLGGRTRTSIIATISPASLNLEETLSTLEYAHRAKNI
row,Compound,IC50
1,"CC(C)(C)[C@H](c1nc(-c2cc(F)ccc2F)nn1Cc1ccccc1)N(CC1CNC[C@@H]1F)C(=O)C1CCCO1 (stereo in doubt) [Compound 1, (S)—N—((R)-1-(1-benzyl-3-(2,5-difluorophenyl)-1H-1,2,4-triazol-5-yl)-2,2-dimethylpropyl)-N-(((3R,4R)-4-fluoropyrrolidin-3-yl)methyl)tetrahydrofuran-2-carboxamide]",0.96 nM
2,"C[C@@H]1CN(C(=O)N(C[C@@H]2CNC[C@@H]2F)[C@@H](c2nc(-c3cc(F)ccc3F)nn2Cc2ccccc2)C(C)(C)C)C[C@H](C)O1 (stereo in doubt) [Compound 2, N—((R)-1-(1-benzyl-3-(2,5-difluorophenyl)-1H-1,2,4-triazol-5-yl)-2,2-dimethylpropyl)-N-(((3R,4R)-4-fluoropyrrolidin-3-yl)methyl)-2,6-dimethylmorpholine-4-carboxamide]",0.83 nM
3,"C[C@@H]1CN(C(=O)N(C[C@@H]2CNC[C@@H]2F)[C@@H](c2nc(-c3cc(F)ccc3F)nn2Cc2cccc(F)c2)C(C)(C)C)C[C@H](C)O1 (stereo in doubt) [Compound 3, N—((R)-1-(3-(2,5-difluorophenyl)-1-(3-fluorobenzyl)-1H-1,2,4-triazol-5-yl)-2,2-dimethylpropyl)-N-(((3R,4R)-4-fluoropyrrolidin-3-yl)methyl)-2,6-dimethylmorpholine-4-carboxamide]",0.74 nM
4,"C[C@H](O)C(=O)N(CC1CNC[C@@H]1F)[C@@H](c1nc(-c2cc(F)ccc2F)nn1Cc1ccccc1)C(C)(C)C (stereo in doubt) [Compound 4, (S)—N—((R)-1-(1-benzyl-3-(2,5-difluorophenyl)-1H-1,2,4-triazol-5-yl)-2,2-dimethylpropyl)-N-(((3R,4R)-4-fluoropyrrolidin-3-yl)methyl)-2-hydroxypropanamide]",0.6 nM
5,"CC(C)(C)C(c1nc(-c2cc(F)ccc2F)nn1Cc1cccc(F)c1)N(CC1CNC[C@@H]1F)C(=O)C1CCCO1 (stereo in doubt) [Compound 5, (S)—N—((R)-1-(3-(2,5-difluorophenyl)-1-(3-fluorobenzyl)-1H-1,2,4-triazol-5-yl)-2,2-dimethylpropyl)-N-(((3R,4R)-4-fluoropyrrolidin-3-yl)methyl)tetrahydrofuran-2-carboxamide]",1.46 nM
6,"C[C@H](O)C(=O)N(CC1CNC[C@@H]1F)[C@@H](c1nc(-c2cc(F)ccc2F)nn1Cc1cccc(F)c1)C(C)(C)C (stereo in doubt) [Compound 6, (S)—N—((R)-1-(3-(2,5-difluorophenyl)-1-(3-fluorobenzyl)-1H-1,2,4-triazol-5-yl)-2,2-dimethylpropyl)-N-(((3R,4R)-4-fluoropyrrolidin-3-yl)methyl)-2-hydroxypropanamide]",0.83 nM

# Same assay, conditions: KSP motor domain 3 nM, bovine brain microtubules 50 μg/mL, 2 hours at RT, absorbance at 650 nm; read-out: KSP IC50
row,Compound,IC50
1,COC(C)(C)[C@H](c1nc(-c2cc(F)ccc2F)nn1Cc1cccc(F)c1)N(CC[C@H](N)CF)C(=O)[C@@H]1CCCO1 [Compound 7],1.23 nM
2,COC(C)(C)[C@H](c1nc(-c2cc(F)ccc2F)nn1Cc1cccc(F)c1)N(CC[C@H](N)CF)C(=O)[C@H](C)O [Compound 8],1.49 nM
3,CCN1C[C@@H](CN(C(=O)[C@@H]2CCCO2)[C@@H](c2nc(-c3cc(F)ccc3F)nn2Cc2cccc(F)c2)C(C)(C)OC)[C@@H](F)C1 [Compound 9],49.4 nM
4,COC(C)(C)[C@H](c1nc(-c2cc(F)ccc2F)nn1Cc1cccc(F)c1)N(C[C@@H]1CNC[C@@H]1F)C(=O)[C@@H]1CCCO1 [Compound 10],0.9 nM
5,COC(C)(C)[C@H](c1nc(-c2cc(F)ccc2F)nn1Cc1ccccc1)N(CC[C@H](N)CF)C(=O)[C@@H]1CCCO1 [Compound 11],1.4 nM
6,COC(C)(C)[C@H](c1nc(-c2cc(F)ccc2F)nn1Cc1cccc(F)c1)N(C[C@@H]1CNC[C@@H]1F)C(=O)[C@H](C)O [Compound 12],0.87 nM
7,COC(C)(C)[C@H](c1nc(-c2cc(F)ccc2F)nn1Cc1ccccc1)N(C[C@@H]1CNC[C@@H]1F)C(=O)[C@@H]1CCCO1 [Compound 13],0.69 nM
8,COC(C)(C)[C@H](c1nc(-c2cc(F)ccc2F)nn1Cc1ccccc1)N(CC[C@H](N)CF)C(=O)[C@H](C)O [Compound 14],2.34 nM

# Reference: patent US8546434B2, “Triazole compounds as KSP inhibitors” (Novartis AG, priority 2010, dated 2013)
